Test results as given in patent US20230265151A1, “GIP/GLP1 CO-AGONIST COMPOUNDS” (priority 2020, published 2023).
Where two headings read alike, the source gives them in different places.

Key:
Type in all cases: cell-based
hGIPR = molecular target: T1, hGIPR (Homo sapiens, UniProt P48546); experiment: Functional cAMP formation (HTRF) in HEK-293 clonal cells expressing hGIPR, 0.1% bovine casein, without or with 1.0% human serum albumin; settings: for EC50: cAMP, 0.1% bovine casein (no human serum albumin), geometric mean
T1 construct: expressed in transfected cells
T1 sequence (P48546 22-466): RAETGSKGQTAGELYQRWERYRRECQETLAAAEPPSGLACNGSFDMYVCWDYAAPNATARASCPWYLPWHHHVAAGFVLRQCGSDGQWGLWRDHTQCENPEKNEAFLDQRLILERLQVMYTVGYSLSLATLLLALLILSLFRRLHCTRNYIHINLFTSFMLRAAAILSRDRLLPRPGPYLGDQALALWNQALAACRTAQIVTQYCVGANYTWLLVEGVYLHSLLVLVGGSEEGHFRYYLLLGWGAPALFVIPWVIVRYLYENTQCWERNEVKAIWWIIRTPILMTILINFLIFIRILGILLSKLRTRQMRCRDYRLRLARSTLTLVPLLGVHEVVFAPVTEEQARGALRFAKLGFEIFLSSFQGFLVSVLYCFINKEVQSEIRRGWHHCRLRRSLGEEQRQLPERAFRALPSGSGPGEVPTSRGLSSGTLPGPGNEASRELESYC
Procedure, shortened: (§1)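 Cells were stimulated with peptide for 30 min at 37° C, then lysed in buffer carrying cAMP-d2 and anti-cAMP Eu3+-cryptate for a competitive HTRF read after at least 60 min at room temperature. The 665/620 nm ratio was converted to nM cAMP against a standard curve.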

hGCGR = molecular target: T2, hGCGR (Homo sapiens, UniProt P47871); experiment: Functional cAMP formation (HTRF) in HEK-293 clonal cells expressing hGCGR, 0.1% bovine casein, without or with 1.0% human serum albumin
T2 construct: expressed in transfected cells
T2 sequence (P47871 26-477): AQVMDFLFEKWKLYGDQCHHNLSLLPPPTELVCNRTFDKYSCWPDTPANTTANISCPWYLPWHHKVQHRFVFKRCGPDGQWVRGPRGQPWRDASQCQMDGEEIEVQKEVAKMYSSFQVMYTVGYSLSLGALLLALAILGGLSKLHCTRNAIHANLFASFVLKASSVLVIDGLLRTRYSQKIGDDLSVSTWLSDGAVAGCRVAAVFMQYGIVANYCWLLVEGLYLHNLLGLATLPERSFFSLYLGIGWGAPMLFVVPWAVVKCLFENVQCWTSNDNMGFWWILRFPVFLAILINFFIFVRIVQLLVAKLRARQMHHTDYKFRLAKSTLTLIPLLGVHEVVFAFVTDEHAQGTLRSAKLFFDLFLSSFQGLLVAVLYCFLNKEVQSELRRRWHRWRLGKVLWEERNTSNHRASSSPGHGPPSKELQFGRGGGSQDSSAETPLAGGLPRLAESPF
Procedure, shortened: as §1

hGLP-1R = hGLP-1R (Homo sapiens, UniProt P43220); experiment: Functional cAMP formation (HTRF) in HEK-293 clonal cells expressing hGLP-1R, 0.1% bovine casein, without or with 1.0% human serum albumin; parameters: expressed in transfected cells
hGLP-1R, sequence (P43220 24-463): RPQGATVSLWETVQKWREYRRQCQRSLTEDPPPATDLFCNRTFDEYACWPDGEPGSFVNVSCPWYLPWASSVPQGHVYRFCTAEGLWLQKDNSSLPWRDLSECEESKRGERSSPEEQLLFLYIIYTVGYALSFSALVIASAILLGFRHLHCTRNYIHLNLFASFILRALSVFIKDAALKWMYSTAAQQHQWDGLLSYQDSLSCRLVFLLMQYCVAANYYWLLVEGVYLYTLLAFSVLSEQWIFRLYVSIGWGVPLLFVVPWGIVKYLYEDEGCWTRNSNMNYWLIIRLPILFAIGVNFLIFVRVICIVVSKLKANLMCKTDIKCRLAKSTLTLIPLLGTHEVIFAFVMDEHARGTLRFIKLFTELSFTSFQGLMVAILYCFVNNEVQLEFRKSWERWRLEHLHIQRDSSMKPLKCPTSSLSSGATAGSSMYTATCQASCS
Procedure, shortened: as §1

[1] = HEK293, percent of maximal response to GIP(1-42)NH2, 37° C., 0.1% bovine casein, arithmetic mean, read-out: hGIPR Emax, % ± SEM
[2] = cAMP, incubated at 37° C., 0.1% bovine casein (no human serum albumin), geometric mean, read-out: hGCGR EC50, nM (SEM, n)

`CC[C@H](C)[C@H](NC(=O)[C@H](CC(C)C)NC(=O)[C@](C)(Cc1ccc(O)cc1)NC(=O)[C@@H](CCC(=O)O)NC(=O)[C@@H](NC(=O)[C@H](Cc1ccccc1)NC(=O)[C@H](CCC(=O)O)NC(=O)C(C)(C)NC(=O)[C@H](CCC(N)=O)NC(=O)[C@H](C)NC(=O)[C@H](CCCCNC(=O)COCCOCCNC(=O)COCCOCCNC(=O)CC[C@H](NC(=O)CCCCCCCCCCCCC(=O)O)C(=O)O)NC(=O)[C@H](CCCN)NC(=O)[C@H](CC(=O)O)NC(=O)[C@H](CC(C)C)NC(=O)[C@](C)(CC(C)C)NC(=O)[C@@H](NC(=O)[C@H](CO)NC(=O)[C@H](Cc1ccc(-c2ccccc2)cc1)NC(=O)[C@H](CC(=O)O)NC(=O)[C@H](CO)NC(=O)[C@@H](NC(=O)[C@](C)(Cc1ccccc1F)NC(=O)[C@@H](NC(=O)CNC(=O)[C@H](CCC(=O)O)NC(=O)C(C)(C)NC(=O)[C@@H](N)Cc1ccc(O)cc1)[C@@H](C)O)[C@@H](C)O)[C@@H](C)CC)[C@@H](C)CC)C(=O)N[C@@H](CCC(=O)O)C(=O)NCC(=O)NCC(=O)N[C@@H](CCCCNC(=O)COCCOCCNC(=O)COCCOCCNC(=O)CC[C@H](NC(=O)CCCCCCCCCCCCC(=O)O)C(=O)O)C(=O)N[C@@H](CO)C(=O)N[C@@H](CO)C(=O)NCC(=O)N[C@@H](C)C(=O)N1CCC[C@H]1C(=O)N1CCC[C@H]1C(=O)N1CCC[C@H]1C(=O)N[C@@H](CO)C(N)=O` [Example 55] was tested, and the Emax (hGIPR; HEK293, 0.1% bovine casein and 1.0% human serum albumin, 37° C., percent of maximal response to GIP(1-42)NH2, read-out: hGIPR Emax, % ± SEM) was 85.7 ± 0.885%, the Emax (hGIPR; [1]) was 97.1 ± 2.16% and the EC50 (hGIPR; incubated at 37° C., read-out: hGIPR EC50, nM (SEM, n)) was 0.0207 nM. The EC50 (hGCGR; 0.1% bovine casein and 1.0% human serum albumin, 37° C., geometric mean, read-out: hGCGR EC50, nM (SEM, n)) was over 9950 nM, the EC50 (hGCGR; [2]) was over 9950 nM and the EC50 (hGLP-1R; 0.1% bovine casein and 1.0% human serum albumin, 37° C., geometric mean, read-out: hGLP-1R EC50, nM (SEM, n)) was 70.5 nM. For the same molecule, the EC50 (hGLP-1R; cAMP, incubated at 37° C., 0.1% bovine casein (no human serum albumin), geometric mean, read-out: hGLP-1R EC50, nM (SEM, n)) was 0.154 nM.
Molecule `CC[C@H](C)[C@H](NC(=O)[C@H](CCCN)NC(=O)[C@H](CC(=O)O)NC(=O)[C@H](CC(C)C)NC(=O)[C@](C)(CC(C)C)NC(=O)[C@@H](NC(=O)C(C)(C)NC(=O)[C@H](Cc1ccc(O)cc1)NC(=O)[C@H](CC(=O)O)NC(=O)[C@H](CO)NC(=O)[C@@H](NC(=O)[C@](C)(Cc1ccccc1F)NC(=O)[C@@H](NC(=O)CNC(=O)[C@H](CCC(=O)O)NC(=O)C(C)(C)NC(=O)[C@@H](N)Cc1ccc(O)cc1)[C@@H](C)O)[C@@H](C)O)[C@@H](C)CC)C(=O)N[C@@H](C)C(=O)N[C@@H](CCC(N)=O)C(=O)NC(C)(C)C(=O)N[C@@H](CCCN)C(=O)N[C@@H](Cc1ccccc1)C(=O)N[C@H](C(=O)N[C@@H](CCCCNC(=O)COCCOCCNC(=O)COCCOCCNC(=O)COCCOCCNC(=O)CC[C@H](NC(=O)CCCCCCCCCCCCC(=O)O)C(=O)O)C(=O)N[C@@](C)(Cc1ccc(O)cc1)C(=O)N[C@@H](CC(C)C)C(=O)N[C@H](C(=O)N[C@@H](CCCCNC(=O)COCCOCCNC(=O)COCCOCCNC(=O)COCCOCCNC(=O)CC[C@H](NC(=O)CCCCCCCCCCCCC(=O)O)C(=O)O)C(=O)NCC(=O)NCC(=O)N1CCC[C@H]1C(=O)N[C@@H](CO)C(=O)N[C@@H](CO)C(=O)NCC(=O)N[C@@H](C)C(=O)N1CCC[C@H]1C(=O)N1CCC[C@H]1C(=O)N1CCC[C@H]1C(=O)N[C@@H](CO)C(N)=O)[C@@H](C)CC)[C@@H](C)CC` [Example 478] has an Emax (hGIPR; HEK293, cAMP, 37° C., 0.1% bovine casein and 1.0% human serum albumin, percent of maximal response to GIP(1-42)NH2, read-out: hGIPR Emax, % ± SEM) of 84%, an Emax (hGIPR; HEK293, cAMP, 37° C., 0.1% bovine casein, percent of maximal response to GIP(1-42)NH2, arithmetic mean, read-out: hGIPR Emax, % ± SEM) of 93.9% and an EC50 (hGIPR; 37° C., read-out: hGIPR EC50, nM (SEM, n)) of 0.0139 nM. It also gave an EC50 (hGCGR; cAMP, 37° C., 0.1% bovine casein (no human serum albumin), geometric mean, read-out: hGCGR EC50, nM (SEM, n)) of over 9950 nM, an EC50 (hGCGR; cAMP, 37° C., 0.1% bovine casein and 1.0% human serum albumin, geometric mean (SEM, n), read-out: hGCGR EC50, nM (SEM, n)) of over 9950 nM and an Emax (hGLP-1R; HEK293, cAMP, 37° C., 0.1% bovine casein, percent of maximal response to GLP-1(7-36)NH2, arithmetic mean, read-out: hGLP-1R Emax, % ± SEM) of 109%. For the same molecule, the EC50 (hGLP-1R; cAMP, 37° C., 0.1% bovine casein (no human serum albumin), geometric mean, read-out: hGLP-1R EC50, nM (SEM, n)) was 0.322 nM and the EC50 (hGLP-1R; cAMP, 37° C., 0.1% bovine casein and 1.0% human serum albumin, geometric mean (SEM, n), read-out: hGLP-1R EC50, nM (SEM, n)) was 6.16 nM.
For `CCCCCCCCCCCC(=O)N[C@@H](CCC(=O)NCCOCCOCC(=O)NCCOCCOCC(=O)NCCCC[C@H](NC(=O)CNC(=O)CNC(=O)[C@H](CCC(=O)O)NC(=O)[C@@H](NC(=O)[C@H](CC(C)C)NC(=O)[C@](C)(Cc1ccccc1)NC(=O)[C@@H](CCC(=O)O)NC(=O)[C@@H](NC(=O)[C@](C)(Cc1ccccc1)NC(=O)[C@H](CCC(=O)O)NC(=O)C(C)(C)NC(=O)[C@H](CCC(N)=O)NC(=O)[C@H](C)NC(=O)[C@H](CCCCNC(=O)COCCOCCNC(=O)COCCOCCNC(=O)CC[C@H](NC(=O)CCCCCCCCCCC)C(=O)O)NC(=O)[C@H](CCCN)NC(=O)[C@H](CC(=O)O)NC(=O)[C@H](CC(C)C)NC(=O)[C@](C)(CC(C)C)NC(=O)[C@@H](NC(=O)[C@H](CO)NC(=O)[C@H](Cc1ccncc1)NC(=O)[C@H](CC(=O)O)NC(=O)[C@H](CO)NC(=O)[C@@H](NC(=O)[C@](C)(Cc1ccccc1)NC(=O)[C@@H](NC(=O)CNC(=O)[C@H](CCC(=O)O)NC(=O)C(C)(C)NC(=O)[C@@H](N)Cc1ccc(O)cc1)[C@@H](C)O)[C@@H](C)O)[C@@H](C)CC)[C@@H](C)CC)[C@@H](C)CC)C(=O)N[C@@H](CO)C(=O)N[C@@H](CO)C(=O)NCC(=O)N[C@@H](C)C(=O)N1CCC[C@H]1C(=O)N1CCC[C@H]1C(=O)N1CCC[C@H]1C(=O)N[C@@H](CO)C(N)=O)C(=O)O` [Example 174], the Emax (hGIPR; [1]) was 92.2%, the EC50 (hGCGR; [2]) was over 9950 nM and the Emax (hGLP-1R; HEK293, percent of maximal response to GLP-1(7-36)NH2, 37° C., 0.1% bovine casein, arithmetic mean, read-out: hGLP-1R Emax, % ± SEM) was 98.2%.
`CC[C@H](C)[C@H](NC(=O)[C@H](CC(C)C)NC(=O)[C@](C)(Cc1ccc(O)cc1)NC(=O)[C@@H](CCC(=O)O)NC(=O)[C@@H](NC(=O)[C@H](Cc1ccccc1)NC(=O)[C@H](CCC(=O)O)NC(=O)C(C)(C)NC(=O)[C@H](CCC(N)=O)NC(=O)[C@H](C)NC(=O)[C@H](CCCCNC(=O)COCCOCCNC(=O)COCCOCCNC(=O)CC[C@H](NC(=O)CCCCCCCCCOc1ccc(C(=O)O)cc1)C(=O)O)NC(=O)[C@H](CCCN)NC(=O)[C@H](CC(=O)O)NC(=O)[C@H](CC(C)C)NC(=O)[C@](C)(CC(C)C)NC(=O)[C@@H](NC(=O)C(C)(C)NC(=O)[C@H](Cc1ccncc1)NC(=O)[C@H](CC(=O)O)NC(=O)[C@H](CO)NC(=O)[C@@H](NC(=O)[C@](C)(Cc1ccccc1F)NC(=O)[C@@H](NC(=O)CNC(=O)[C@H](CCC(=O)O)NC(=O)C(C)(C)NC(=O)[C@@H](N)Cc1ccc(O)cc1)[C@@H](C)O)[C@@H](C)O)[C@@H](C)CC)[C@@H](C)CC)C(=O)N[C@@H](CCCCNC(=O)COCCOCCNC(=O)COCCOCCNC(=O)CC[C@H](NC(=O)CCCCCCCCCOc1ccc(C(=O)O)cc1)C(=O)O)C(=O)NCC(=O)NCC(=O)N1CCC[C@H]1C(=O)N[C@@H](CO)C(=O)N[C@@H](CO)C(=O)NCC(=O)N[C@@H](C)C(=O)N1CCC[C@H]1C(=O)N1CCC[C@H]1C(=O)N1CCC[C@H]1C(=O)N[C@@H](CO)C(N)=O` [Example 244] showed an Emax (hGIPR; HEK293, read-out: hGIPR Emax, % ± SEM, 0.1% bovine casein and 1.0% human serum albumin, 37° C., percent of maximal response to GIP(1-42)NH2) of 89.5%, an EC50 (hGIPR; hGIPR EC50, nM (SEM, n), incubated at 37° C.) of 0.0218 nM and an EC50 (hGCGR; hGCGR EC50, nM (SEM, n), 0.1% bovine casein and 1.0% human serum albumin, 37° C., geometric mean) of over 9950 nM. It also gave an EC50 (hGCGR; hGCGR EC50, nM (SEM, n), cAMP, incubated at 37° C., 0.1% bovine casein (no human serum albumin), geometric mean) of over 9950 nM, an Emax (hGLP-1R; HEK293, read-out: hGLP-1R Emax, % ± SEM, 0.1% bovine casein and 1.0% human serum albumin, 37° C., percent of maximal response to GLP-1(7-36)NH2) of 96.3% and an EC50 (hGLP-1R; hGLP-1R EC50, nM (SEM, n), cAMP, incubated at 37° C., 0.1% bovine casein (no human serum albumin), geometric mean) of 2.25 nM.
